Assay results: article PMC6522510 (Nature Communications, 2019)

Assays:
Parameters in all cases: species or system AML cell lines (8); Primary HTS, single concentration about 10 uM, Cell Titer Glo viability; log10 luminescence, per cent inhibition relative to cycloheximide control
Conditions in all cases: 72 h, relative to cycloheximide control, log10 luminescence; inhibitor
[1] = test system: CHRF288-11
[2] = test system: MOLM-13
[3] = test system: ML-2
[4] = test system: CMK
[5] = test system: CMS
[6] = test system: M07e
[7] = test system: U937
[8] = test system: MV4-11

SMILES	CHRF288-11 %inh [1]	MOLM-13 %inh [2]	ML-2 %inh [3]	CMK %inh [4]	CMS %inh [5]	M07e %inh [6]	U937 %inh [7]	MV4-11 %inh [8]
COc1cc2ncn(-c3cc(O[C@H](C)c4ccccc4Cl)c(C(N)=O)s3)c2cc1OC [SJ000573003-2, U20723/53/1 | U20723/56/1]	41.02%	108.1%	11.11%	110.4%	80.13%	88.84%	82.96%	78.95%
CS(=O)(=O)CCNCc1ccc(-c2ccc3ncnc(Nc4ccc(OCc5ccccc5)c(Cl)c4)c3c2)o1 [SJ000573004-1, U12816/179/1]	2.861%	-1.767%	2.349%	1.726%	-1.14%	-1.936%	-2.727%	1.075%
[O-][S+]1CCN(Cc2ccc(-c3ccc4ncnc(Nc5ccc(OCc6cccc(F)c6)c(Cl)c5)c4c3)o2)CC1 [SJ000573006-1, U16708/127/1]	12.8%	-0.7641%	0.7137%	4.042%	4.852%	-1.786%	-0.3031%	-1.095%
CCS(=O)(=O)c1ccc(OC)c(Nc2ncc(-c3cccc(F)c3)o2)c1 [SJ000573008-1, U15747/41/2]	-0.1874%	34.16%	0.9608%	0.9043%	0.7614%	1.435%	1.214%	41.43%
COc1cc(Nc2ncc(-c3ccccc3)o2)cc(OC)c1OC [SJ000573009-1, U21834/26/1]	41.65%	93.46%	46.26%	106.1%	12.03%	25.07%	48.56%	70.39%
O=S(=O)(CCNCc1ccc(-c2ccc3ncnc(Nc4ccc(OCc5cccc(F)c5)c(Cl)c4)c3c2)o1)c1ccccc1 [SJ000573010-1, U15277/78/1]	-1.699%	2.488%	0.08634%	1.889%	-1.695%	-3.622%	1.807%	-1.134%
CS(=O)(=O)CCNCc1ccc(-c2ccc3ncnc(Nc4ccc(OCc5ccccc5)c(Br)c4)c3c2)o1 [SJ000573011-1, U14801/114/2]	1.432%	0.135%	-0.7119%	0.7024%	2.264%	-3.258%	-1.717%	1.235%
Fc1ccc(-c2ncn(C3CCNCC3)c2-c2ccnc(Oc3ccc(F)c(F)c3)n2)cc1 [SJ000573012-1, JB27026-232B1]	-0.6747%	-3.394%	1.308%	0.6183%	1.648%	-2.095%	-1.918%	1.825%
Fc1ccc(-c2ncn(C3CCNCC3)c2-c2ccnc(Oc3ccccc3)n2)cc1 [SJ000573013-1, JB19236-077B1]	6.56%	-2.821%	1.79%	-1.927%	-0.5294%	0.9358%	2.101%	0.9088%
C[C@@H](Oc1cc(-n2cnc3ccc(OC4CCN(C)CC4)cc32)sc1C(N)=O)c1ccccc1Cl [SJ000573015-1, U20958/186/1]	79.26%	100.2%	28.2%	85.68%	56.77%	91.2%	71%	65.04%
CS(=O)(=O)CCN(CC#N)Cc1ccc(-c2ccc3ncnc(Nc4ccc(OCc5cccc(F)c5)c(Cl)c4)c3c2)o1 [SJ000573016-1, U15872/6/1]	-2.462%	0.2014%	-0.1489%	0.1592%	3.038%	3.973%	1.155%	-0.4968%
COc1cc2ncn(-c3cc(OCc4ccccc4C(F)(F)F)c(C(N)=O)s3)c2cc1OC [SJ000573017-1, U19479/72/1]	5.686%	75.9%	50.35%	61.69%	10.85%	75.37%	52.87%	11.51%
COc1ccc2ncn(-c3cc(O[C@H](C)c4ccccc4Cl)c(C(N)=O)s3)c2c1 [SJ000573018-1, U20814/197/10]	95.84%	77.34%	40.68%	106.8%	74.69%	105.8%	80.58%	78.2%
NC(=O)c1cc(-c2ccc(F)cc2)cc(-c2ccncc2)c1N [SJ000573019-1, R12070/183/1]	0.09024%	2.771%	-4.125%	2.8%	-0.425%	-3.642%	-0.8611%	-5.414%
CS(=O)(=O)CCNCc1coc(-c2ccc3ncnc(Nc4ccc(OCc5ccccc5)cc4)c3c2)c1 [SJ000573020-1, U12271/135/2]	-1.974%	31.36%	1.422%	4.823%	-1.503%	-2.581%	2.077%	24.68%
NC(=O)Cc1ccccc1Oc1nccc(-c2c(-c3ccc(F)cc3)ncn2C2CCNCC2)n1 [SJ000573021-1, JB27143-130B1]	2.665%	-3.279%	0.1798%	-8.193%	1.576%	-2.017%	-0.5311%	-0.3846%
CS(=O)(=O)CCNCc1ccoc1-c1ccc2ncnc(Nc3ccc(OCc4ccccc4)cc3)c2c1 [SJ000573022-1, U12271/142/3]	3.335%	26.01%	0.6017%	1.228%	-1.789%	4.198%	-0.4603%	13.73%
COc1cc2ncn(-c3cc(OCc4ccccc4Cl)c(C(N)=O)s3)c2cc1OC [SJ000573023-1, U22436/143/1]	71.75%	81.3%	36.08%	98.04%	71.19%	101%	71.67%	72.02%
CCS(=O)(=O)c1ccc(OC)c(Nc2ncc(-c3cccc(C(C)=O)c3)o2)c1 [SJ000573024-1, U16419/42/1]	-0.8609%	78.46%	-2.018%	1.586%	-0.9431%	133.2%	71.28%	66.42%
COc1cc2ncn(-c3cc(OCCc4ccccc4)c(C(N)=O)s3)c2cc1OC [SJ000573025-1, U19479/153/8]	0.4642%	2.298%	0.6694%	4.39%	-1.969%	0.3839%	0.712%	2.077%
N#Cc1c(NC(=O)c2cccc3ccccc23)sc2c1CCCC2 [SJ000573026-1, R15619/70/1 | TCS JNK 5A | JNK INHIBITOR IX | | TCS JNK 5A]	42.98%	87.75%	58.68%	122.9%	100.8%	97.41%	83.53%	80.18%
COc1cccc(-n2ncc3c(N/N=C/c4ccc(S(C)(=O)=O)cc4)ncnc32)c1 [SJ000573027-1, U18028/92/1]	-7.861%	-3.446%	-4.304%	-4.499%	0.1842%	-5.045%	-1.909%	1.569%
